Laboratory results: the supplement of paper PMC8617591

Tests used:
[1] = system: Mycobacterium tuberculosis Erdman (autoluminescent); assay: total FIC90 (Loewe) at 90% inhibition, three-drug combination (log2); higher = more antagonistic
Experimental: (§1)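 DiaMOND equipotent three-drug combination dose responses (10 doses, 1.5- or 2-fold spacing, centred on IC90) against autoluminescent M. tuberculosis Erdman in 8 in vitro models. Read-out is OD600, or luminescence for the intracellular and dormancy models, normalised to untreated wells. Hill-fit Einf, AUC25 and GRinf are potency metrics; FIC50 and FIC90 are total Loewe fractional inhibitory concentrations as log2 (negative = synergy).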

[2] = system: Mycobacterium tuberculosis Erdman (autoluminescent); assay: Einf, fitted maximum growth inhibition of three-drug combination (fraction); higher = stronger maximal inhibition
Experimental: as §1

[3] = system: Mycobacterium tuberculosis Erdman (autoluminescent); assay: GRinf, maximum normalised growth rate inhibition (three-drug combination) (unitless (-1 to 1)); higher = less effect (negative = killing)
Experimental: as §1

[4] = system: Mycobacterium tuberculosis Erdman (autoluminescent); assay: total FIC50 (Loewe) at 50% inhibition, three-drug combination (log2); higher = more antagonistic
Experimental: as §1

[5] = system: Mycobacterium tuberculosis Erdman (autoluminescent); assay: AUC25, normalised area under dose response up to IC25 (three-drug combination) (fraction (0-1)); higher = more potent at low dose
Experimental: as §1

COc1c(N2C[C@@H]3CCCN[C@@H]3C2)c(F)cc2c(=O)c(C(=O)O)cn(C3CC3)c12 [moxifloxacin] + O=[N+]([O-])c1cn2c(n1)OC[C@@H](OCc1ccc(OC(F)(F)F)cc1)C2 [pretomanid] + NC(=O)c1cnccn1 [pyrazinamide]
Conditions	AUC25, [5]	Einf, [2]	GRinf, [3]	total FIC50, [4]	total FIC90, [1]
in vitro model: acidic pH 5.7, time point: constant (~7 days, model-specific)	0.0694	0.831	-0.227	-0.148	–
in vitro model: acidic pH 5.7, time point: terminal (~4-5 doublings, model-specific)	0.0654	0.956	-0.278	0.329	-0.227
in vitro model: intracellular J774, time point: constant = terminal	–	0.967	-0.384	–	0.419

Conditions	AUC25, [5]	Einf, [2]	GRinf, [3]	total FIC50, [4]	total FIC90, [1]
in vitro model: butyrate, time point: constant (~7 days, model-specific)	0.111	0.909	0.0413	0.152	1.77
in vitro model: butyrate, time point: terminal (~4-5 doublings, model-specific)	0.0867	0.967	-0.0495	0.235	0.86
in vitro model: cholesterol 0.05 mM, time point: constant (~7 days, model-specific)	0.128	0.753	-0.295	–	–
in vitro model: cholesterol 0.05 mM, time point: terminal (~4-5 doublings, model-specific)	0.102	0.926	-0.334	1.11	–
in vitro model: cholesterol-high 0.2 mM, time point: constant (~7 days, model-specific)	0.0858	0.914	-0.29	0.415	–
in vitro model: cholesterol-high 0.2 mM, time point: terminal (~4-5 doublings, model-specific)	0.0802	1	-0.594	0.654	0.481
in vitro model: dormancy (butyrate + nitrate, low O2), time point: constant (~7 days, model-specific)	0.0852	0.871	0.199	0.104	-0.0729
in vitro model: dormancy (butyrate + nitrate, low O2), time point: terminal (~4-5 doublings, model-specific)	0.0687	0.982	-0.232	0.195	0.876
in vitro model: standard 7H9 glycerol, time point: constant = terminal	0.071	0.972	-0.151	–	–
in vitro model: valerate, time point: constant (~7 days, model-specific)	0.0976	0.89	0.0242	-0.452	–
in vitro model: valerate, time point: terminal (~4-5 doublings, model-specific)	0.0676	0.945	0.00495	0.11	-0.163

O=[N+]([O-])c1cn2c(n1)OC[C@@H](OCc1ccc(OC(F)(F)F)cc1)C2 [pretomanid] + CO[C@H]1/C=C/O[C@@]2(C)Oc3c(C)c(O)c4c(O)c(c(/C=N/N5CCN(C6CCCC6)CC5)c(O)c4c3C2=O)NC(=O)/C(C)=C\C=C\[C@H](C)[C@H](O)[C@@H](C)[C@@H](O)[C@@H](C)[C@H](OC(C)=O)[C@@H]1C [rifapentine] + CO[C@H]1/C=C/O[C@@]2(C)Oc3c(C)c(O)c4c(O)c(c(/C=N/N5CCN(C)CC5)c(O)c4c3C2=O)NC(=O)/C(C)=C\C=C\[C@H](C)[C@H](O)[C@@H](C)[C@@H](O)[C@@H](C)[C@H](OC(C)=O)[C@@H]1C [rifampicin]
Conditions	AUC25, [5]	Einf, [2]	GRinf, [3]	total FIC50, [4]	total FIC90, [1]
in vitro model: acidic pH 5.7, time point: constant (~7 days, model-specific)	0.0846	0.906	-0.198	0.583	–
in vitro model: acidic pH 5.7, time point: terminal (~4-5 doublings, model-specific)	0.0433	0.982	-0.177	0.863	0.271
in vitro model: intracellular J774, time point: constant = terminal	–	0.998	-0.321	–	0.0281

Conditions	AUC25, [5]	Einf, [2]	GRinf, [3]	total FIC50, [4]	total FIC90, [1]
in vitro model: butyrate, time point: constant (~7 days, model-specific)	0.0997	0.913	0.0188	0.122	-0.618
in vitro model: butyrate, time point: terminal (~4-5 doublings, model-specific)	0.0845	0.963	-0.00218	-0.0327	-0.0222
in vitro model: cholesterol 0.05 mM, time point: constant (~7 days, model-specific)	0.12	0.706	-0.115	0.545	–
in vitro model: cholesterol 0.05 mM, time point: terminal (~4-5 doublings, model-specific)	0.0882	0.891	-0.0855	0.37	0.821
in vitro model: cholesterol-high 0.2 mM, time point: constant (~7 days, model-specific)	0.0723	0.899	-0.242	0.542	0.699
in vitro model: cholesterol-high 0.2 mM, time point: terminal (~4-5 doublings, model-specific)	0.0602	0.992	-0.654	0.62	0.433
in vitro model: dormancy (butyrate + nitrate, low O2), time point: constant (~7 days, model-specific)	0.0773	0.885	0.156	0.534	0.288
in vitro model: dormancy (butyrate + nitrate, low O2), time point: terminal (~4-5 doublings, model-specific)	0.0339	0.968	-0.0787	0.206	0.101
in vitro model: standard 7H9 glycerol, time point: constant = terminal	0.0607	0.906	0.057	0.0183	–
in vitro model: valerate, time point: constant (~7 days, model-specific)	0.0681	0.866	0.0606	0.168	–
in vitro model: valerate, time point: terminal (~4-5 doublings, model-specific)	0.0473	0.937	0.0285	0.389	0.0371
